Read-outs that look alike come from different tables or passages of the source.
Key:
human 5-HT4B receptor [1] = target: T1, human 5-HT4B receptor (Homo sapiens, UniProt P34969); experiment: cAMP formation in intact, transiently transfected Cos-7 cells; format: cell-based; conditions: for stimulation of basal cAMP release: 1 μM
T1 construct: The entire coding region of the human 5-HT4B receptor (1338 bp); expressed in transfected cells

human 5-HT4B receptor [2] = target: T1, human 5-HT4B receptor; experiment: cell-based; format: cell-based; conditions: for Emax: L-M(TK-), read-out: Emax* (% 5-HT RESPONSE)
[3] = target: T2, human 5-HT4B receptor (clone hp78a) (Homo sapiens, UniProt P34969); experiment: [3H]5-HT radioligand binding to membranes of Cos-7 cells transiently expressing clone hp78a
T2 construct: The entire coding region of the human 5-HT4B receptor (1338 bp); expressed in transfected cells; host or cells: Cos-7 (monkey kidney), transient, plasmid hp78a/EXJ (pcEXV-5HT4B)
T2 sequence (P34969 1-445 isoform P34969-2): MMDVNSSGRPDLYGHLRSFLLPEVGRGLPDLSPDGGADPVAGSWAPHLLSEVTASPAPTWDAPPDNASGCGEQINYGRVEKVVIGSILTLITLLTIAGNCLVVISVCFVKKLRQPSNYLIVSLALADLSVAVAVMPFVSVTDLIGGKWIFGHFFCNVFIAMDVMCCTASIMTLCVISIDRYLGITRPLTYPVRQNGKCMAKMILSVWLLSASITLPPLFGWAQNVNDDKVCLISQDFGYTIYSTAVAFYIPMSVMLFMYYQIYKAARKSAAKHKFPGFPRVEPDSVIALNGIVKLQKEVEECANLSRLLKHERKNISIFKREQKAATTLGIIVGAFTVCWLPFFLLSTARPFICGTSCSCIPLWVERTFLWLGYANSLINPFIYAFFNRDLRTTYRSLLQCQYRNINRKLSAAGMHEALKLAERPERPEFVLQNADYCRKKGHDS

5-HT4B receptor = target: T3, 5-HT4B receptor (Rattus norvegicus, UniProt P32305); experiment: [3H]5-CT receptor autoradiography on rat brain sections; format: binding
T3 construct: from tissue; host or cells: rat brain cryostat sections (20 µm)
T3 sequence (P32305 whole entry): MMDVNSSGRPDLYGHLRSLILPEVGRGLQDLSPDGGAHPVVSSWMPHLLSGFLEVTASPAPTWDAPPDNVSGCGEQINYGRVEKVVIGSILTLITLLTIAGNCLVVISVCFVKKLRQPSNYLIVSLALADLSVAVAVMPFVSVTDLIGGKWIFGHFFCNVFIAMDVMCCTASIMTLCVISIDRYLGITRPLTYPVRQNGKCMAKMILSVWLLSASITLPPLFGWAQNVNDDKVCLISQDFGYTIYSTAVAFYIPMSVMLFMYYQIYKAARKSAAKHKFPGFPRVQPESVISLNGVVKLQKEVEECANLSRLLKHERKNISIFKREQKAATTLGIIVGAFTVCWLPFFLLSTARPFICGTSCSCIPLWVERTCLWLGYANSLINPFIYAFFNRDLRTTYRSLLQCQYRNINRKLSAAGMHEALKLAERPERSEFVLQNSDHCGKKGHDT

[4] = tested on: 5-HT receptor present in glial membranes; conditions: Fillion et al., 1980, property shared with hp78a, cited from earlier work
human 5-HT1E receptor = human 5-HT1E receptor (Homo sapiens, UniProt P28566); conditions: cited from earlier work
Chain of human 5-HT1E receptor (P28566 whole entry): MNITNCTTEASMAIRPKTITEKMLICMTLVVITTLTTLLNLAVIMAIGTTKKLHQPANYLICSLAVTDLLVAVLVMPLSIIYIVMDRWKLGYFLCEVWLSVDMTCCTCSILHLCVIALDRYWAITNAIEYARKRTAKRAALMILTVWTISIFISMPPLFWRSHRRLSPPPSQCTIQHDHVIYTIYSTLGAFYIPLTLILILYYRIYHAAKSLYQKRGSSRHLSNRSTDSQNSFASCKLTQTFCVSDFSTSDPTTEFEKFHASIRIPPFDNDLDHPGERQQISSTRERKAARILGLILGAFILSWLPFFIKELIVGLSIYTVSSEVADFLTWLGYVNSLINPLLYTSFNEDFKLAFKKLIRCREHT

human 5-HT1F receptor = target: T4, human 5-HT1F receptor (Homo sapiens, UniProt P30939); conditions: cited from earlier work
T4 sequence (P30939 1-366): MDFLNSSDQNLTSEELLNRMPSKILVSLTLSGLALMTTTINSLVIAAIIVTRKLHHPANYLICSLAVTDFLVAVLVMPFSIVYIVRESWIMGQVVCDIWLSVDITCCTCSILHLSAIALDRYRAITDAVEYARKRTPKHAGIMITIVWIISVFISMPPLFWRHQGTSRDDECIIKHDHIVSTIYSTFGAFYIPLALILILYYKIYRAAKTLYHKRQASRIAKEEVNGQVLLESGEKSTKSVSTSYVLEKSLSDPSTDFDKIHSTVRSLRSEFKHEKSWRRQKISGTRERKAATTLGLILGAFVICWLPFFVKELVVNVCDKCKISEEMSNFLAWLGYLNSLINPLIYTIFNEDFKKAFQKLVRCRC

[5] = tested on: untransfected or mock-transfected Cos-7 cells; experiment: cAMP in untransfected or mock-transfected Cos-7 cells; format: cell-based, monkey; conditions: 1 μM
Protocol: Both the 5-HT-mediated inhibition and stimulation of cAMP levels were evaluated in these three intact cell preparations. Intracellular cAMP formation was measured by radioimmunoassay (cAMP Radioimmunoassay kit, Advanced Magnetics, Cambridge, Mass.) using methodology outlined by Zgombick et al. (1991). Radioactivity was quantitatied using a Packard COBRA Auto Gamma Counter (equipped with data reduction software).

[6] = normalized to the 5-HT maximal response
[7] = read-out: Ki (apparent dissociation constants for clone hp78a)
[8] = Ki (apparent dissociation constants for clone hp78a)
[9] = dissociation constant of antagonist, KB = [B]/(A′/A) − 1], read-out: KB

T1 sequence (P34969 1-445 isoform P34969-2): as the sequence (P34969 1-445 isoform P34969-2) above

CCCN(CCC)C1CCc2cccc(O)c2C1 (centres unmarked)
stimulation of basal cAMP release (human 5-HT4B receptor [1]): about 2 fold | INTRINSIC ACTIVITY (human 5-HT4B receptor [2]): PARTIAL AGONIST | functional character (human 5-HT4B receptor [2]): weak agonist | Emax* (% 5-HT RESPONSE) (human 5-HT4B receptor [2]; [6]): 51 ± 14 % 5-HT RESPONSE

CC(C)NCC(O)COc1cccc2[nH]ccc12 (racemic) [Pindolol]
Ki [3, 7]: > 5000 nM

CC(N)Cc1c[nH]c2ccc(O)cc12 (racemic) [α-Methyl-5-hydroxy-tryptamine]
Ki [3, 8]: 509 nM

CC(C)NCC(O)COc1cccc2[nH]ccc12 (single isomer, unassigned; (-)) [(−)pindolol]
effect on [3H]5-CT binding (5-HT4B receptor; masks: 100 nM PAPP and 160 nM (−)pindolol added together): markedly reduced

c1ccc2c(N3CCNCC3)cccc2c1 [1-Naphthylpiperazine]
Ki [3, 7]: 83 ± 19 nM

CCN(CC)C(=O)[C@@H]1C=C2c3cccc4[nH]c(Br)c(c34)C[C@H]2N(C)C1 [2-Bromo-LSD]
% INHIBITION OF 5-HT RESPONSE (human 5-HT4B receptor [1]): 95 ± 4.5% | FOLD cAMP STIMULATION (human 5-HT4B receptor [1]; 1 μM drug, relative to basal levels): 0 | INTRINSIC ACTIVITY (human 5-HT4B receptor [2]): ANTAGONIST | Kb (human 5-HT4B receptor [2]; [9]): 12 ± 3 nM | Emax* (% 5-HT RESPONSE) (human 5-HT4B receptor [2]; [6]): 0 % 5-HT RESPONSE | Ki [3, 7]: 30 ± 10 nM | antagonism [4]: Potent antagonism

NCCc1c[nH]c2ccc(OCc3ccccc3)cc12 [5-Benzyloxytryptamine]
Ki [3, 8]: 729 nM

NCCc1c[nH]c2ccc(C(N)=O)cc12 [5-CT, 5-Carboxamidotryptamine]
agonist activity (human 5-HT4B receptor [1]): potent agonists | Ki (human 5-HT1E receptor): > 700 nM | INTRINSIC ACTIVITY (human 5-HT4B receptor [2]): AGONIST (key: AGONIST indicates that the maximal response to the drug was at least 80% of the maximum response obtained with 5-HT) | functional character (human 5-HT4B receptor [2]): potent agonists | Emax (human 5-HT4B receptor [2]): 110 ± 19% | Ki (human 5-HT1F receptor): > 700 nM

NCCc1c[nH]c2ccc(O)cc12 [5-HT, 5-Hydroxytryptamine]
increase in cAMP release over basal levels (human 5-HT4B receptor [1]): 20 fold | stimulation of basal cAMP release (human 5-HT4B receptor [1]): 7 fold | stimulation of intracellular cAMP accumulation (human 5-HT4B receptor [1]; coincubation of 1 μM FSK and 1 μM 5-HT): 75 fold | INTRINSIC ACTIVITY (human 5-HT4B receptor [2]): AGONIST (AGONIST indicates that the maximal response to the drug was at least 80% of the maximum response obtained with 5-HT) | effect on basal or FSK-stimulated adenylate cyclase activity [5]: no effect | EC50 ([4]; read-out: EC50 value for 5-HT stimulation of cAMP): 500 to 1000 nM

COc1ccc2[nH]cc(CCN)c2c1 [5-MeOT, 5-Methoxytryptamine]
agonist activity (human 5-HT4B receptor [1]): potent agonists | INTRINSIC ACTIVITY (human 5-HT4B receptor [2]): AGONIST (key: AGONIST indicates that the maximal response to the drug was at least 80% of the maximum response obtained with 5-HT) | functional character (human 5-HT4B receptor [2]): potent agonists | Emax (human 5-HT4B receptor [2]): 100 ± 5%

CC(C)C[C@H]1C(=O)N2CCC[C@H]2[C@]2(O)O[C@](NC(=O)[C@@H]3C=C4c5cccc6[nH]c(Br)c(c56)C[C@H]4N(C)C3)(C(C)C)C(=O)N12 [Bromocriptine]
Kb (human 5-HT4B receptor [2]): 240 ± 10 nM | Emax (human 5-HT4B receptor [2]): 0%

CN(C)CCc1c[nH]c2ccc(O)cc12 [Bufotenin]
Ki [3, 8]: 26 nM

COc1cc(CC(C)N)c(OC)cc1I (centres unmarked) [DOI]
PERCENT INHIBITION (displacement of specific [3H]5-HT binding) [3]: 20

CN1C[C@H](C(=O)N[C@]2(C)O[C@@]3(O)[C@@H]4CCCN4C(=O)[C@H](Cc4ccccc4)N3C2=O)C[C@@H]2c3cccc4[nH]cc(c34)C[C@H]21 [Dihydroergotamine]
INTRINSIC ACTIVITY (human 5-HT4B receptor [2]): ANTAGONIST | Emax (human 5-HT4B receptor [2]): 0% | Kb (human 5-HT4B receptor [2]; [9]): 20 ± 4 nM | Ki [3, 8]: 6.9 ± 0.9 nM

CCCN(CCC)CCc1c[nH]c2ccc(C(N)=O)cc12 [Dipropyl-5-carboxamidotryptamine]
EC50 (human 5-HT4B receptor [2]): 2400 nM | Emax* (% 5-HT RESPONSE) (human 5-HT4B receptor [2]): 86 ± 12 % 5-HT RESPONSE | INTRINSIC ACTIVITY (human 5-HT4B receptor [2]): AGONIST (key: AGONIST indicates that the maximal response to the drug was at least 80% of the maximum response obtained with 5-HT) | Ki [3, 7]: 37 ± 21 nM

NCCc1ccc(O)c(O)c1 [Dopamine]
PERCENT INHIBITION (displacement of specific [3H]5-HT binding) ([3]; 30 nM competitor, 5 nM [3H]5-HT, 30 min at 37° C.): 0

CN1C[C@H](C(=O)N[C@]2(C)O[C@@]3(O)[C@@H]4CCCN4C(=O)[C@H](Cc4ccccc4)N3C2=O)C=C2c3cccc4[nH]cc(c34)C[C@H]21 [Ergotamine]
effect on specific [3H]5-CT binding (5-HT4B receptor; 1 μM, 0.5 nM [3H]5-CT): completely eliminated | Ki [3, 8]: 15 nM | Ki ([3]; Ki for clone hp78a): < 20 nM

Nc1nc2c(ncn2[C@@H]2O[C@H](COP(=O)(O)OP(=O)(O)NP(=O)(O)O)[C@@H](O)[C@H]2O)c(=O)[nH]1 [Gpp(NH)p, 5′-guanylylimidodiphosphate]
reduction of high affinity [3H]5-HT binding [3]: 75%

NCCc1c[nH]cn1 [Histamine]
PERCENT INHIBITION (displacement of specific [3H]5-HT binding) ([3]; 100 nM competitor, 5 nM [3H]5-HT, 30 min at 37° C.): 10

Reference: patent publication US6432655B1, “Method of obtaining compositions” (Synaptic Pharmaceutical Corporation, priority 1992, dated 2002)
